# From paper PMC5484485, “In vitro and in vivo effects of kisspeptin antagonists p234, p271, p354, and p356 on GPR54 activation” (PLoS ONE, 2017)
# Square brackets hold non-standard residues; d marks the D form. Ends that are not written are not given here.
# What was measured:
# plasma LH concentration = test: Plasma LH in anestrous Beagle bitches during antagonist infusion and after cKP10 bolus; assay type: in vivo, dog; conditions: n = 6
# Text: Thirteen adult anestrous Beagle bitches were used for this study. Six dogs with a median age of 89 months (range 43–122 months) were used as control group, receiving cKP10 without an antagonist. Eight dogs with a median age of 52 months (range 31–116 months) were used for the antagonist experiments. One dog was first used in the control group and 12 months later for the antagonist experiments. Of the eight dogs used for the antagonist experiments, four received p271, p354, and p356. In two of the eight dogs both p354 and p356 were tested, while in the remaining two dogs only p271 was tested, in order to test every antagonist in 6 dogs. The time between testing of different kisspeptin antagonists was at least 5 days (range 5–15 days) to ensure that there were no peptide residues. Kisspeptin antagonist p234 per se was not tested in vivo because p271 is in fact p234 with a penetratin tag to enhance passage across the blood-brain barrier, as has been described for use with peripheral administration.
# Kisspeptin antagonists (50 μg/kg/h) were administered continuously for three hours via a catheter in the cephalic vein. Two hours after the start of the infusion, a single bolus of cKP10 (0.5 μg/kg) was administered intravenously. Blood samples were collected from the jugular vein by venipuncture at -40 min and 0 min before the antagonist infusion, and then every 30 min for two hours. After the administration of cKP10, blood samples were collected at 10, 20, 40, and 60 min (i.e., 130, 140, 160, and 180 min after the start of the antagonist infusion).
# As a control, KP stimulation tests (without the administration of a kisspeptin antagonist) were performed in six dogs. Blood samples were collected from the jugular vein by venipuncture at -40 min and 0 min before, and then at 10, 20, 40, and 60 min after administration of cKP10 (0.5 μg/kg). Plasma LH concentrations were measured in all blood samples.
# Plasma LH concentrations were measured with a heterologous radioimmunoassay validated for the dog, as described previously. The intra- and interassay CVs for values above 0.5 μg/l were 2.3 and 10.5%, respectively, and the limit of quantitation was 0.3 μg/l.
# In both groups of dogs (experimental and control), the basal plasma LH concentration was calculated for each dog as the mean of the values at –40 and 0 min before cKP10 or antagonist administration. All LH values that exceeded the mean of all basal samples plus 3 SD were attributed to pulsatile secretion and were treated as outliers and excluded from statistical analysis. Log transformation of plasma LH concentrations was used because data were not normally distributed. A linear mixed model was used to analyze differences in plasma LH concentrations before and after KP10, with or without a kisspeptin antagonist (group effects: p271, p354, p356, and controls), with Bonferroni correction. P<0.05 was considered significant.
# kisspeptin receptor = conditions: ref unpublished data; cited from earlier work
# Description: The following peptides were tested for antagonistic properties on the kisspeptin receptor: p234 ((D-Ala)-Asn-Trp-Asn-Gly-Phe-Gly-(D-Trp)-Arg-Phe-NH2), p271 (Arg-Arg-Met-Lys-Trp-Lys-Lys-Tyr-(D-Ala)-Asn-Trp-Asn-Gly-Phe-Gly-(D-Trp)-Arg-Phe-NH2), p354 ((D-Ala)-Tyr-Asn-Phe-Asn-Gly-Phe-Gly-(D-Trp)-Arg-Phe-NH2), and p356 ((D-Ala)-Tyr-Asn-Trp-Asn-Gly-Phe-Gly-(D-Trp)-Lys-Phe-NH2). Peptide 354 and p356 are next generation analogs refining p234.
# human GPR54 [1] = molecular target: T1, human GPR54 (Homo sapiens, UniProt Q969F8); test: Flow cytometric calcium flux assay, response to peptide alone (agonist / intrinsic activity); assay type: cell-based; parameters: host or cells: rat hematopoietic CHEM1 cells expressing endogenous Galpha15; conditions: any tested concentration, 10^-13 to 10^-5 M; n = 3
# Description: In vitro analyses of the effects of kisspeptin and kisspeptin antagonists, were performed using HT[…] cells (rat hematopoietic CHEM1 cells expressing endogenous Gα15 and, stably expressing the human GPR54 receptor (Millipore BV, the Netherlands), CHEM1-GPR54. Cells were counted and suspended in HBSS+++ at a concentration of 5*10^6 cells/ml. To load the cells with the fluorescent dye ester they were incubated in HBSS+++ adjusted to a concentration of 2 μM Fluo-3 AM (Molecular Probes, Life Technologies, the Netherlands) for 1h at 37°C under agitation in the dark. After incubation, the cells were washed by adding HBSS+++ to a volume of 10 ml followed by centrifugation (5 min, 150 x g) to remove excess of Fluo-3AM. […] Thereafter the tube was removed briefly and 25 μl peptide (see below) was added, after which aspiration and analysis continued. For statistical analyses fluorescent data recorded during the time interval 30-60 seconds after initiation of measurement were used. […] Experiments were performed 3 times. Representative flow cytometry results are depicted in Fig 1. […] We then assessed whether these antagonists could compete with KP10 for its receptor. […] For this purpose 25 μl quantities of the antagonists were added to 200 μl of Fluo-3 AM labelled cells (10^6 cells/ml) and incubated for 15 min. […] Peptides p354 and p356 were tested three times with both human and canine KP10; while peptides p234 and p271 were tested three times with human KP10 and once with canine KP10. […] A multivariate general linear model was set up to analyze differences in calcium response between the different concentrations, with Dunnett's test as a post hoc procedure for the antagonists and Bonferroni's test for the agonists.
# human GPR54 [2] = molecular target: T1, human GPR54; test: Flow cytometric calcium flux assay, KP10-induced response after 15 min pre-incubation with antagonist; assay type: cell-based; parameters: host or cells: rat hematopoietic CHEM1 cells expressing endogenous Galpha15; conditions: all concentrations 10^-13 to 10^-5 M; 10^-8 M KP10; 15 min pre-incubation; P = 1.00
# Description: In vitro analyses of the effects of kisspeptin and kisspeptin antagonists, were performed using HT[…] cells (rat hematopoietic CHEM1 cells expressing endogenous Gα15 and, stably expressing the human GPR54 receptor (Millipore BV, the Netherlands), CHEM1-GPR54. Cells were counted and suspended in HBSS+++ at a concentration of 5*10^6 cells/ml. To load the cells with the fluorescent dye ester they were incubated in HBSS+++ adjusted to a concentration of 2 μM Fluo-3 AM (Molecular Probes, Life Technologies, the Netherlands) for 1h at 37°C under agitation in the dark. After incubation, the cells were washed by adding HBSS+++ to a volume of 10 ml followed by centrifugation (5 min, 150 x g) to remove excess of Fluo-3AM. […] Thereafter the tube was removed briefly and 25 μl peptide (see below) was added, after which aspiration and analysis continued. For statistical analyses fluorescent data recorded during the time interval 30-60 seconds after initiation of measurement were used. […] We then assessed whether these antagonists could compete with KP10 for its receptor. […] For this purpose 25 μl quantities of the antagonists were added to 200 μl of Fluo-3 AM labelled cells (10^6 cells/ml) and incubated for 15 min. […] Peptides p354 and p356 were tested three times with both human and canine KP10; while peptides p234 and p271 were tested three times with human KP10 and once with canine KP10. To analyze the effects of different concentrations of the KP antagonists on the calcium response due to KP10 addition, the differences in fluorescence before and after KP10 were calculated (the calcium response). The calcium response ratios were calculated as the calcium response of the CHEM1-GPR54 cells pre-incubated with different concentrations of KP antagonist and the control (the calcium response of the cells without KP antagonist). These calcium response ratios were log transformed and used for further analysis by univariate analysis of variance, with the Dunnett's test as post hoc test. The calcium response ratios were set as dependent variables and the different concentrations of the antagonists and the two types of KP10 were used as fixed factors. The residuals were normally distributed.
# [3] = antagonist 50 μg/kg/h iv, cKP10 0.5 μg/kg iv
# T1 sequence (Q969F8 whole entry): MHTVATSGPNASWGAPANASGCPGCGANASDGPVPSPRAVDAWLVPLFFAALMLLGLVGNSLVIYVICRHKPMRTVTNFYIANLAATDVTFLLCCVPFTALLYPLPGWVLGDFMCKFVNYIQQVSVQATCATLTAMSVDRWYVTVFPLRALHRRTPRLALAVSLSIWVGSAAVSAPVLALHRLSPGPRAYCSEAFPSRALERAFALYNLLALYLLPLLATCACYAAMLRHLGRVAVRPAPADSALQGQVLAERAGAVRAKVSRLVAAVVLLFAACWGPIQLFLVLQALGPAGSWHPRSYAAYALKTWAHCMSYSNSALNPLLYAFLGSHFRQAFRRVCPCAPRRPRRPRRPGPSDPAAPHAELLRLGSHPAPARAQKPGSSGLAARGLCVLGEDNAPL
substance,measurement,setting,value
[dA]YNFNGFG[dW]RF-NH2 [p354],"Median (and range) plasma LH, t = 30",plasma LH concentration; 30 min of antagonist infusion 50 μg/kg/h iv,3.7 (2.1–13.1) μg/L
same,"Median (and range) plasma LH, t = 60",plasma LH concentration; 60 min of antagonist infusion 50 μg/kg/h iv,3.2 (2.2–7.2) μg/L
same,"Median (and range) plasma LH, t = 120","plasma LH concentration; 120 min of antagonist infusion 50 μg/kg/h iv, before cKP10",5.2 (2.6–15.7) μg/L
same,median maximum increment in plasma LH concentration after cKP10 during antagonist administration,plasma LH concentration; [3],8.1 µg/L
same,range of maximum increment in plasma LH concentration after cKP10 during antagonist administration,plasma LH concentration; [3],5.0 to 12.5 µg/L
same,"Median (and range) plasma LH, t = 130 / t = 10*","plasma LH concentration; antagonist infusion 50 μg/kg/h iv, 10 min after cKP10 0.5 μg/kg iv",13.5 (8.4–20.3) μg/L
same,"Median (and range) plasma LH, t = 140 / t = 20*","plasma LH concentration; antagonist infusion 50 μg/kg/h iv, 20 min after cKP10 0.5 μg/kg iv",10.0 (5.5–13.0) μg/L
same,"Median (and range) plasma LH, t = 160 / t = 40*","plasma LH concentration; antagonist infusion 50 μg/kg/h iv, 40 min after cKP10 0.5 μg/kg iv",6.4 (4.7–9.1) μg/L
same,"Median (and range) plasma LH, t = 180 / t = 60*","plasma LH concentration; antagonist infusion 50 μg/kg/h iv, 60 min after cKP10 0.5 μg/kg iv",4.7 (3.7–9.9) μg/L
same,"Median (and range) plasma LH, Basal",plasma LH concentration; before antagonist infusion (mean of -40 and 0 min per dog),4.2 (2.8–6.7) μg/L
same,effect on basal plasma LH concentration,"plasma LH concentration; continuous iv 50 μg/kg/h, anestrous bitches",did not cause significant alterations
same,"binding and inhibition of kisspeptin action on inositol generation, potency range",kisspeptin receptor,nanomolar range
same,intrinsic calcium response,human GPR54 [1],no significant intrinsic calcium response
same,difference in calcium response ratio between controls and antagonist,human GPR54 [2],not significant
